Reference: patent US20170274014A1, “COMBINATIONS OF LOW, IMMUNE ENHANCING, DOSES OF MTOR INHIBITORS AND CARS” (Novartis AG, priority 2014, published 2017)
Where “and” joins values, the source holds several entries; their conditions need not be identical. Equal values may be shown once. Read-outs that look alike come from different tables or passages of the source.

Tests used:
[1] = test system: huCART19 cells; experiment: 4 day co-culture proliferation assay of CART cells with NALM6 target cells; type: cell-based, human; settings: 4 day co-culture with NALM6, 1:1
[2] = test system: influenza vaccine strains (H1N1 A/California/07/2009, H3N2 A/Victoria/210/2009, B/Brisbane/60/2008); experiment: Influenza vaccine strain titers after RAD001 dosing versus placebo; type: in vivo, human; settings: 4 weeks after vaccination; RAD001 dosing cohorts; intention to treat population
Procedure: In FIG. 1A, the increase above baseline in influenza geometric mean titers to each of the 3 influenza vaccine strains (H1N1 A/California/07/2009, H3N2 A/Victoria/210/2009, B/Brisbane/60/2008) relative to the increase in the placebo cohort 4 weeks after vaccination is shown for each of the RAD001 dosing cohorts in the intention to treat population. […] FIG. 1B is a graph of the same data as in FIG. 1A for the subset of subjects with baseline influenza titers <=1:40.
RAD001 concentrations (1 hour post dose) were measured after subjects had been dosed for 4 weeks. All subjects who had pharmacokinetic measurements were included in the analysis set. The fold increase in geometric mean titers at 4 weeks post vaccination relative to baseline is shown on the y axis.

[3] = test system: NALM6-luc tumors; experiment: Growth of NALM6-luc tumors in NSG mice; type: in vivo; settings: daily oral dosing of RAD001 alone
[4] = test system: PD-1 positive CD4 and CD8 T cells; design: species or system human; settings: in vivo
[5] = test system: pneumococcal serotypes; settings: all 3 RAD cohorts; 7 of 23 serotypes measured
[6] = test system: A/H3N2 strain A/Victoria/361/11; experiment: Hemagglutination inhibition titers to heterologous A/H3N2 strain not in the vaccine; type: in vivo, human
[7] = test system: huCAR19 CAR T cells; experiment: CAR T cell expansion in vivo in NSG mice with NALM6-luc tumors (FACS); settings: lowest doses of RAD001, daily oral; more evident and prolonged with CD4+ than CD8+ CAR T cells
[8] = in vivo
[9] = test system: A/H1N1 strain A/New Jersey/8/76; type: in vivo, human
[10] = test system: A/H1N1/California/07/2009 influenza; experiment: Anti-A/H1N1/California/07/2009 influenza IgG and IgM levels in serum before and after vaccination; type: in vivo, human; settings: all p values >0.05 by Kruskal-Wallis rank sum test
Procedure: FIGS. 4A and 4B are graphic representations of IgG and IgM levels before and after influenza vaccination. Levels of anti-A/H1N1/California/07/2009 influenza IgG and IgM were measured in serum obtained from subjects before and 4 weeks post influenza vaccination.

[11] = test system: A/H1N1/California/07/2009; experiment: Serum anti-influenza IgG and IgM levels before and 4 weeks after vaccination; type: in vivo, human; settings: RAD001 vs placebo treated cohorts
Procedure: The trial was observer-blind because the placebo in the RAD001 0.5 mg daily and 20 mg weekly cohorts differed slightly from the RAD001 tablets in those cohorts. […] The treatment duration for all cohorts was 6 weeks during which time subjects underwent safety evaluations in the clinic every 2 weeks. After subjects had been dosed for 4 weeks, RAD001 steady state levels were measured pre-dose and at one hour post dose. […] Antibody titers to the 3 influenza vaccine strains as well as to 2 heterologous strains (A/H1N1 strain A/New Jersey/8/76 and A/H3N2 strain A/Victoria/361/11) were measured by standard hemagglutination inhibition assay (Kendal, A P et al. (1982) Concepts and procedures for laboratory-based influenza surveillance. Atlanta: Centers for Disease Control and Prevention B17-B35). Levels of IgG and IgM specific for the A/H1N1/California/07/2009 were measured in serum samples taken before and 4 weeks after influenza vaccination as described previously (Spensieri, F. et al. (2013) Proc. Natl. Acad. Sci. USA 110:14330-14335). Results were expressed as fluorescence intensity.

[12] = test system: CAR-expressing, transduced T cells; experiment: CART co-culture with NALM6 cells in presence of RAD001; settings: low doses of RAD001, 4 days

## CO[C@H]1C[C@@H]2CC[C@@H](C)[C@@](O)(O2)C(=O)C(=O)N2CCCC[C@H]2C(=O)O[C@H]([C@H](C)C[C@@H]2CC[C@@H](OCCO)[C@H](OC)C2)CC(=O)[C@H](C)/C=C(\C)[C@@H](O)[C@@H](OC)C(=O)[C@H](C)C[C@H](C)/C=C/C=C/C=C/1C [RAD001, (1R,9S,12S,15R,16E,18R,19R,21R,23S,24E,26E,28E,30S,32S,35R)-1,18-dihydroxy-12-{(1R)-2-[(1S,3R,4R)-4-(2-hydroxyethoxy)-3-methoxycyclohexyl]-1-methylethyl}-19,30-dimethoxy-15,17,21,23,29,35-hexamethyl-11,36-dioxa-4-aza-tricyclo[30.3.1.04,9]hexatriaconta-16,24,26,28-tetraene-2,3,10,14,20-pentaone]
[1]
  RAD001 concentration in whose presence huCART19 cells expanded (lesser extent at higher concentrations): less than 0.016 nM
[2]
  increase above baseline in influenza geometric mean titers to the 3 influenza vaccine strains relative to placebo: increase in titers
[3]
  Impact on the growth of NALM6-luc tumors: did not have an impact
[4]
  Decrease in PD-1 positive CD4 T cells compared to placebo cohort: 30.2% and 32.7%
  Decrease in PD-1 positive CD8 T cells compared to placebo cohort: 37.4% and 41.4%
  Percentage of CD4 PD-1 positive T cells: decreased from baseline
  Percentage of CD8 PD-1 positive cells: decreased from baseline
  Percentage of PD-1 negative CD4 T cells: increased
[5]
  Pneumococcal serotypes with increased antibody titers compared to placebo: 6/7
[6]; 0.5 mg daily
  Percentage of subjects who seroconvert to heterologous A/H3N2 strain A/Victoria/361/11 4 weeks after seasonal influenza vaccination: 38%
[6]; 5 mg weekly, * p < 0.05 vs placebo
  Percentage of subjects who seroconvert to heterologous A/H3N2 strain A/Victoria/361/11 4 weeks after seasonal influenza vaccination: 39%*
[6]; 20 mg weekly, * p < 0.05 vs placebo
  Percentage of subjects who seroconvert to heterologous A/H3N2 strain A/Victoria/361/11 4 weeks after seasonal influenza vaccination: 40%*
[6]; RAD001 vs placebo cohorts
  Increase in the HI GMT ratio for the heterologous strain: higher in the RAD001 as compared to placebo cohorts
[6]; pooled RAD001 cohorts, versus 20% for placebo, p=0.007
  H3N2 heterologous strain seroconversion rate: 39%
[7]
  Proliferation of the CAR T cells in vivo: enhanced proliferation
[8]; human
  Trough level of the immunization study regimens relative to approved transplant and oncology regimens: 3-20 fold lower
[8]
  Average RAD001 trough level: below detection limits
[9]; 0.5 mg daily
  Percentage of subjects who seroconvert to heterologous A/H1N1 strain A/NewJersey/8/76 4 weeks after seasonal influenza vaccination: 17%
[9]; 5 mg weekly
  Percentage of subjects who seroconvert to heterologous A/H1N1 strain A/NewJersey/8/76 4 weeks after seasonal influenza vaccination: 16%
[9]; 20 mg weekly
  Percentage of subjects who seroconvert to heterologous A/H1N1 strain A/NewJersey/8/76 4 weeks after seasonal influenza vaccination: 8%
[9]; RAD001 vs placebo cohorts
  Increase in the HI GMT ratio for the heterologous strain: higher in the RAD001 as compared to placebo cohorts
[10]
  change from baseline to 4 weeks post vaccination in anti-H1N1 influenza IgG and IgM levels, RAD001 versus placebo cohorts: No significant difference
[11]
  Post-vaccination anti-influenza IgM and IgG levels: did not differ between RAD001 and placebo treated cohorts
[12]
  proliferation of CAR-expressing, transduced T cells: enhanced
